The results in this text go back to US20230085307A1, “PYRIDAZINONE COMPOUND AND HERBICIDE” (NISSAN CHEMICAL CORPORATION, priority 2019, published 2023).

One test has as its system late watergrass. Kind of test: Test Example 1: herbicidal activity, application before weed generation under submerged conditions (Table 16, symbol A). The following applies: 320 g/ha applied herbicide. The class given is in vivo, late watergrass (Echinochloa oryzicola). In a few lines:
(§1)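 Alluvial soil was flooded to 4 cm depth, weed seeds were sown mixed and 2.5-leaf rice seedlings were transplanted. On sowing day, the compound's emulsion, diluted in water to a set dose, was applied to the water surface. Plants grew at 25–30 °C and were scored 0–5 after three weeks.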

For a further test, the system named is Japanese bulrush. Kind of test: Test Example 1: herbicidal activity, application before weed generation under submerged conditions (Table 16, symbol B). Format: in vivo, Japanese bulrush (Schoenoplectus juncoides). The note with it: 320 g/ha applied herbicide. Put shortly: as §1
The test system of test [1] is oval-leafed pondweed. Kind of test: Test Example 1: herbicidal activity, application before weed generation under submerged conditions (Table 16, symbol C). Format: in vivo, oval-leafed pondweed (Monochoria vaginalis). The following applies: 320 g/ha applied herbicide. In a few lines: as §1
Test [2] relates to oval-leafed pondweed. Kind of test: Test Example 2: herbicidal activity, application during weed generation under submerged conditions (Table 17, symbol C). The class given is in vivo, oval-leafed pondweed (Monochoria vaginalis). The note with it: AAH 320 g/ha; application during weed generation, submerged conditions. Put shortly: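 Herbicide emulsion, diluted with water to the chosen amount, is applied onto 4 cm floodwater over alluvial soil where the weeds were co-sown and raised at 25–30° C. Application timing: 1–2 leaves. Assessment: three weeks afterwards.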

The subject of another test is Chinese sprangletop. Kind of test: Test Example 3: herbicidal effect by foliage application, Wagner pot (Table 18, symbol D). Format: in vivo, chinese sprangletop (Leptochloa chinensis). The note with it: 320 g/ha. Put shortly:
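Plants were sown in alluvial soil held under 0.1–0.5 cm standing water and grown 14 days in a greenhouse at 25–30 °C. An emulsifiable formulation, water-diluted to the set dose, was then sprayed onto the foliage, and effects were scored three weeks later using previously defined criteria.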

The next test relates to blackgrass. Kind of test: Test Example 4: herbicidal effect by soil treatment (Table 19, symbol J). Format: in vivo, blackgrass (Alopecurus myosuroides). The note with it: 320 g/ha. Put shortly:
(§2)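 Emulsion of test compound, water-diluted to predetermined amount, sprayed on soil after sowing (seed depth ~1.5 cm, sterilized diluvial soil). Greenhouse, 25–30° C. Effect graded at three weeks post-spray.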

The subject of another test is windgrass. Kind of test: Test Example 4: herbicidal effect by soil treatment (Table 19, symbol L). The class given is in vivo, windgrass (Apera spica-venti). The following applies: 320 g/ha. Put shortly: as §2
The next test relates to persian speedwell. Kind of test: Test Example 4: herbicidal effect by soil treatment (Table 19, symbol R). Format: in vivo, Persian speedwell (Veronica persica). The note with it: 320 g/ha. Put shortly: as §2
Another test relates to southern crabgrass. Kind of test: Test Example 5: herbicidal effect by foliage application, plastic box (Table 20, symbol F). Format: in vivo, southern crabgrass (Digitaria ciliaris). The note with it: foliage application, 320 g/ha, 3 weeks after application. Put shortly:
(§3)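 Post-emergence foliar test in sterilized diluvial soil. Compound applied as water-diluted emulsion at a predetermined rate to 14-day-old plants; evaluation at three weeks.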

For another test, the system named is barnyard grass. Kind of test: Test Example 5: herbicidal effect by foliage application, plastic box (Table 20, symbol H). The class given is in vivo, barnyard grass (Echinochloa crus-galli). The following applies: foliage application, 320 g/ha, 3 weeks after application. In a few lines:
as §3

The next test has as its system lambsquarters. Kind of test: Test Example 5: herbicidal effect by foliage application, plastic box (Table 20, symbol O). Format: in vivo, lambsquarters (Chenopodium album). The note with it: foliage application, 320 g/ha, 3 weeks after application. Put shortly:
as §3

On to `CCCC(=O)Oc1c(C)nn(C)c(=O)c1-c1c(-c2ccc(COC)cc2)sc2ccc(F)cc12` [2-023], for which the “Herbicidal effect on A: late watergrass (grade 0-5)” value in the test on late watergrass was 2 (Herbicidal rate of 20% or more and less than 40%). Moreover, the “Herbicidal effect on B: Japanese bulrush (grade 0-5)” value (from here on “Herbicidal effect on B”) in the test on Japanese bulrush is listed as 0 (Herbicidal rate of 5% or less (almost no effect)). For the same molecule, the “Herbicidal effect on C: oval-leafed pondweed (grade 0-5)” value (from here on “Herbicidal effect on C”) in the test on oval-leafed pondweed [1] is 0 (Herbicidal rate of 5% or less (almost no effect)). The “herbicidal effect rating, C: oval-leafed pondweed” value (from here on “herbicidal effect rating, C”) in the test with oval-leafed pondweed [2] is given as 0 (Herbicidal rate of 5% or less (almost no effect)). Further, the “herbicidal effect on D (Chinese sprangletop), rating 0-5” value (shortened to “herbicidal effect on D”) in the test with Chinese sprangletop is 4 (Herbicidal rate of 70% or more and less than 90%). The “herbicidal effect rating, J: blackgrass” value with blackgrass is 3 (Herbicidal rate of 40% or more and less than 70%). Besides, the “herbicidal effect rating, L: windgrass” value in the test on windgrass is recorded as 0 (Herbicidal rate of 5% or less (almost no effect)). For the same molecule, the “herbicidal effect rating, R: persian speedwell” value (shortened to “herbicidal effect rating, R”) in the test on persian speedwell was 5 (Herbicidal rate of 90% or more (almost completely withered)). Moreover, the “effect on southern crabgrass (F)” value with southern crabgrass was 5 (Herbicidal rate of 90% or more (almost completely withered)). Besides, the “effect on barnyard grass (H)” value in the test on barnyard grass was 5 (Herbicidal rate of 90% or more (almost completely withered)). For the same molecule, the “effect on lambsquarters (O)” value with lambsquarters is 4 (Herbicidal rate of 70% or more and less than 90%).

As to `CCOc1ccc(-c2sc3ccc(F)cc3c2-c2c(O)c(C)nn(C)c2=O)cc1` [2-030], the “Herbicidal effect on A: late watergrass (grade 0-5)” value in the test with late watergrass was 3 (Herbicidal rate of 40% or more and less than 70%). In addition, the “Herbicidal effect on B” value in the test with Japanese bulrush is recorded as 0 (Herbicidal rate of 5% or less (almost no effect)). The “Herbicidal effect on C” value with oval-leafed pondweed [1] is recorded as 0 (Herbicidal rate of 5% or less (almost no effect)). In addition, the “herbicidal effect rating, C” value with oval-leafed pondweed [2] is recorded as 0 (Herbicidal rate of 5% or less (almost no effect)). Moreover, the “herbicidal effect on D” value in the test on Chinese sprangletop is 3 (Herbicidal rate of 40% or more and less than 70%). Also, in the test with blackgrass, the “herbicidal effect rating, J: blackgrass” value is given as 0 (Herbicidal rate of 5% or less (almost no effect)). In the test with windgrass, the “herbicidal effect rating, L: windgrass” value is on record as 0 (Herbicidal rate of 5% or less (almost no effect)). Further, the “herbicidal effect rating, R” value in the test with persian speedwell is 5 (Herbicidal rate of 90% or more (almost completely withered)). The “effect on southern crabgrass (F)” value with southern crabgrass was 3 (Herbicidal rate of 40% or more and less than 70%). For the same molecule, the “effect on barnyard grass (H)” value in the test with barnyard grass is 5 (Herbicidal rate of 90% or more (almost completely withered)). Also, the “effect on lambsquarters (O)” value in the test with lambsquarters is 4 (Herbicidal rate of 70% or more and less than 90%).

On to `CCCC(=O)Oc1c(C)nn(C)c(=O)c1-c1c(-c2ccc(OCC)cc2)sc2ccc(F)cc12` [2-031], for which the “Herbicidal effect on A: late watergrass (grade 0-5)” value in the test on late watergrass is 3 (Herbicidal rate of 40% or more and less than 70%). Also, the “Herbicidal effect on B” value in the test on Japanese bulrush is 4 (Herbicidal rate of 70% or more and less than 90%). Also, the “Herbicidal effect on C” value in the test with oval-leafed pondweed [1] is 4 (Herbicidal rate of 70% or more and less than 90%). Also, the “herbicidal effect rating, C” value in the test with oval-leafed pondweed [2] is 3 (Herbicidal rate of 40% or more and less than 70%). In addition, in the test on Chinese sprangletop, the “herbicidal effect on D” value is 4 (Herbicidal rate of 70% or more and less than 90%). In the test with blackgrass, the “herbicidal effect rating, J: blackgrass” value is listed as 0 (Herbicidal rate of 5% or less (almost no effect)). In addition, the “herbicidal effect rating, L: windgrass” value in the test with windgrass was 0 (Herbicidal rate of 5% or less (almost no effect)). For the same molecule, the “herbicidal effect rating, R” value in the test with persian speedwell was 4 (Herbicidal rate of 70% or more and less than 90%). Besides, the “effect on southern crabgrass (F)” value with southern crabgrass is 0 (Herbicidal rate of 5% or less (almost no effect)). In the test with barnyard grass, the “effect on barnyard grass (H)” value is 4 (Herbicidal rate of 70% or more and less than 90%). Moreover, in the test with lambsquarters, the “effect on lambsquarters (O)” value is 5 (Herbicidal rate of 90% or more (almost completely withered)).

`CCCCOc1ccc(-c2sc3ccc(F)cc3c2-c2c(OC(=O)CCC)c(C)nn(C)c2=O)cc1` [2-037]: the “Herbicidal effect on A: late watergrass (grade 0-5)” value with late watergrass was 3 (Herbicidal rate of 40% or more and less than 70%). For the same molecule, in the test with Japanese bulrush, the “Herbicidal effect on B” value is 2 (Herbicidal rate of 20% or more and less than 40%). Further, the “Herbicidal effect on C” value with oval-leafed pondweed [1] was 3 (Herbicidal rate of 40% or more and less than 70%). In addition, the “herbicidal effect rating, C” value with oval-leafed pondweed [2] was 3 (Herbicidal rate of 40% or more and less than 70%). Also, the “herbicidal effect on D” value in the test with Chinese sprangletop was 2 (Herbicidal rate of 20% or more and less than 40%). Also, the “herbicidal effect rating, J: blackgrass” value with blackgrass was 0 (Herbicidal rate of 5% or less (almost no effect)). In addition, the “herbicidal effect rating, L: windgrass” value in the test with windgrass is given as 0 (Herbicidal rate of 5% or less (almost no effect)). For the same molecule, the “herbicidal effect rating, R” value in the test on persian speedwell is 3 (Herbicidal rate of 40% or more and less than 70%). For the same molecule, the “effect on southern crabgrass (F)” value with southern crabgrass is 2 (Herbicidal rate of 20% or more and less than 40%). The “effect on barnyard grass (H)” value with barnyard grass is 2 (Herbicidal rate of 20% or more and less than 40%). Besides, the “effect on lambsquarters (O)” value in the test with lambsquarters is 4 (Herbicidal rate of 70% or more and less than 90%).

Regarding `CCCCCOc1ccc(-c2sc3ccc(F)cc3c2-c2c(OC(=O)CCC)c(C)nn(C)c2=O)cc1` [2-038], the “Herbicidal effect on A: late watergrass (grade 0-5)” value in the test on late watergrass is 3 (Herbicidal rate of 40% or more and less than 70%). Moreover, the “Herbicidal effect on B” value in the test with Japanese bulrush is 0 (Herbicidal rate of 5% or less (almost no effect)). Further, in the test on oval-leafed pondweed [1], the “Herbicidal effect on C” value was 0 (Herbicidal rate of 5% or less (almost no effect)). The “herbicidal effect rating, C” value in the test on oval-leafed pondweed [2] is 0 (Herbicidal rate of 5% or less (almost no effect)). In the test with Chinese sprangletop, the “herbicidal effect on D” value was 4 (Herbicidal rate of 70% or more and less than 90%). For the same molecule, the “herbicidal effect rating, J: blackgrass” value with blackgrass is reported as 0 (Herbicidal rate of 5% or less (almost no effect)). Moreover, the “herbicidal effect rating, L: windgrass” value in the test with windgrass was 0 (Herbicidal rate of 5% or less (almost no effect)). The “herbicidal effect rating, R” value in the test on persian speedwell was 4 (Herbicidal rate of 70% or more and less than 90%). In the test on southern crabgrass, the “effect on southern crabgrass (F)” value is given as 0 (Herbicidal rate of 5% or less (almost no effect)). Also, the “effect on barnyard grass (H)” value in the test on barnyard grass is 0 (Herbicidal rate of 5% or less (almost no effect)). In addition, the “effect on lambsquarters (O)” value with lambsquarters was 3 (Herbicidal rate of 40% or more and less than 70%).

For the molecule `Cc1nn(C)c(=O)c(-c2c(-c3ccc(OC4CCCC4)cc3)sc3ccc(F)cc23)c1O` [2-039], the “Herbicidal effect on A: late watergrass (grade 0-5)” value in the test on late watergrass is 3 (Herbicidal rate of 40% or more and less than 70%). Further, in the test with Japanese bulrush, the “Herbicidal effect on B” value was 4 (Herbicidal rate of 70% or more and less than 90%). In addition, the “Herbicidal effect on C” value in the test on oval-leafed pondweed [1] is recorded as 5 (Herbicidal rate of 90% or more (almost completely withered)). In addition, the “herbicidal effect rating, C” value in the test on oval-leafed pondweed [2] is 2 (Herbicidal rate of 20% or more and less than 40%). In the test with Chinese sprangletop, the “herbicidal effect on D” value is 5 (Herbicidal rate of 90% or more (almost completely withered)). Besides, the “herbicidal effect rating, J: blackgrass” value in the test with blackgrass is 0 (Herbicidal rate of 5% or less (almost no effect)). For the same molecule, the “herbicidal effect rating, L: windgrass” value in the test on windgrass is 0 (Herbicidal rate of 5% or less (almost no effect)). Further, the “herbicidal effect rating, R” value with persian speedwell is 4 (Herbicidal rate of 70% or more and less than 90%). For the same molecule, in the test on southern crabgrass, the “effect on southern crabgrass (F)” value was 4 (Herbicidal rate of 70% or more and less than 90%). Moreover, the “effect on barnyard grass (H)” value with barnyard grass is given as 5 (Herbicidal rate of 90% or more (almost completely withered)). Besides, the “effect on lambsquarters (O)” value with lambsquarters is 5 (Herbicidal rate of 90% or more (almost completely withered)).
